Measured values published in patent US9834525B2, “Inhibitors of paxillin function and related compositions and methods” (UNIVERSITY OF TENNESSEE RESEARCH FOUNDATION, priority 2015, dated 2017).

Key:
Type in all cases: cell-based, human
ERK1/2 = assay: Western blot of VEGF-induced ERK1/2 phosphorylation in REC; conditions: REC under VEGF; compound (II-4) 500 nM, SU6656 1 μM
Protocol: (§1) REC, Mel 270, OMM 2.5 under Hepatocyte Growth Factor (HGF) or Vascular Endothelial Growth Factor (VEGF) stimulation conditions: Cell lysates were collected in RIPA lysis buffer (50 mM Tris-HCl, pH 7.4, 150 mM NaCl, 2 mM EDTA, 1% Nonidet P-40, 0.1% SDS) with protease 1× inhibitor cocktail (Roche; Indianapolis, Ind.). Lysates were kept on ice and centrifuged at 10,000×g×10 minutes and total protein was measured using the BCA assay (Pierce, Rockford, Ill.). Protein samples were mixed with 4×LDS loading buffer with 2.5% 2-mercaptoethanol (Sigma-Aldrich), heated to 70° C. for 10 minutes, and loaded on NuPAGE 4-12% Bis-Tris gel (Invitrogen, Carlsbad, Calif.). Immunoblotting was performed with nitrocellulose membranes (Bio-Rad, Hercules, Calif.) at 170-mA start and 110-mA end at 25 V for two hours in NuPAGE transfer buffer (Invitrogen) containing 20% methanol. Membranes were blocked using Odyssey blocking buffer (LI-COR; Lincoln, Nebr.) for one hour at room temperature with gentle shaking Membranes were then incubated at 4° C. with specific primary antibodies (1:1000) overnight. Cellular protein was normalized using rabbit-GAPDH or mouse-α-Tubulin [1:20,000] (Cell Signaling, Danvers, Mass.; LI-COR, respectively). […] Dual-channel infrared scan and quantitation of immunoblots were conducted using the ODYSSEY Sa infrared imaging system with Image Studio (Ver. 3.1.4) (LI-COR). […]

paxillin (pY118) = assay: Western blot of VEGF-induced paxillin Y118 phosphorylation in REC; conditions: REC under VEGF; compound (II-4) 500 nM, SU6656 1 μM
Protocol: REC, Mel 270, OMM 2.5 under Hepatocyte Growth Factor (HGF) or Vascular Endothelial Growth Factor (VEGF) stimulation conditions: Cell lysates were collected in RIPA lysis buffer (50 mM Tris-HCl, pH 7.4, 150 mM NaCl, 2 mM EDTA, 1% Nonidet P-40, 0.1% SDS) with protease 1× inhibitor cocktail (Roche; Indianapolis, Ind.). Lysates were kept on ice and centrifuged at 10,000×g×10 minutes and total protein was measured using the BCA assay (Pierce, Rockford, Ill.). Protein samples were mixed with 4×LDS loading buffer with 2.5% 2-mercaptoethanol (Sigma-Aldrich), heated to 70° C. for 10 minutes, and loaded on NuPAGE 4-12% Bis-Tris gel (Invitrogen, Carlsbad, Calif.). Immunoblotting was performed with nitrocellulose membranes (Bio-Rad, Hercules, Calif.) at 170-mA start and 110-mA end at 25 V for two hours in NuPAGE transfer buffer (Invitrogen) containing 20% methanol. Membranes were blocked using Odyssey blocking buffer (LI-COR; Lincoln, Nebr.) for one hour at room temperature with gentle shaking Membranes were then incubated at 4° C. with specific primary antibodies (1:1000) overnight. Cellular protein was normalized using rabbit-GAPDH or mouse-α-Tubulin [1:20,000] (Cell Signaling, Danvers, Mass.; LI-COR, respectively). Secondary antibodies (IRDye 800CW goat anti-rabbit and IRDye 680LT goat anti-mouse) [1:10,000] were incubated in the dark at room temperature for 45 minutes. Dual-channel infrared scan and quantitation of immunoblots were conducted using the ODYSSEY Sa infrared imaging system with Image Studio (Ver. 3.1.4) (LI-COR).
The α4 subunit of the cytoplasmic tail of VLA-4 interacts with the cytoskeletal adaptor paxillin, merging intracellular signaling events that drive cellular proliferation and migration (FIG. 13). Compound (II-4) inhibits phosphorylation of paxillin at Y118 (pY118) in the LD-region that interacts with the α4 subunit of VLA-4. To confirm the inhibition of pY118 of paxillin after use of compound (II-4) retinal endothelial cells (REC) were activated with Vascular Endothelial Growth Factor (VEGF) at 50 ng/mL in the presence or absence (vehicle) of compound (II-4) at a concentration of […] for 4-hrs. […] VEGF-induced pY118 was prevented by treatment with compound (II-4) [VEGF-REC treatment versus untreated, *p<0.005; VEGF-induced versus compound (II-4) treatment, **p<0.05—FIG. 13C].
To gain insight into the mechanistic basis for this phenotype, the effect of compound (II-4) on the Src/FAK/paxillin/ERK signalsome in RECs under VEGF was examined. […] Next, characterization of the potential of compound (II-4) to affect FA disassembly through inactivation of ERK was explored. […]
FIG. 13: Targeting the alpha-4 subunit of VLA-4 signaling through inhibition of paxillin. […] Phosphorylation measured by Western Blot. […]

[1] = system: FAK (Y397, Y576/577, Y925); assay: Western blot of VEGF-induced FAK phosphorylation in REC; conditions: REC under VEGF; compound (II-4) 500 nM, SU6656 1 μM
Protocol: as §1

AKT (Ser473) = assay: Western blot of VEGF-induced AKT phosphorylation in REC; conditions: REC under VEGF; compound (II-4) 500 nM, SU6656 1 μM
Protocol: as §1

[2] = system: retinal endothelial cells (REC); assay: VEGF-induced REC proliferation, WST-1 metabolic assay; conditions: Compound (II-4) (500 nM), LY294002 (1004), SU6656 (104), U0126 (104) [sic]
Protocol: To investigate the potential of compound (II-4) affecting the proliferative capacity of RECs treated with VEGF, proliferation was measured using the metabolic assay based on the tetrazolium salt, WST-1. […] To rule out the possibility that this observation was related to cytotoxicity, RECs were incubated with a high concentration of compound (II-4) (1 μM) for 24 hours. Cells were harvested and apoptosis measured with Annexin-V/Propidium Iodide (PI) staining and analyzed using flow cytometry.
FIG. 18: REC Proliferation and Flow cytometry analysis of apoptosis in REC. A) VEGF-induced cellular proliferation was assessed using the WST-1 metabolic assay. […] (*P<0.0001). Nuclei were stained with DRAQ5 and imaged to show trend of decreasing proliferation. B) Apoptosis was measured using Annexin V/PI staining Compound (II-4) (1 μM) appears to be non-cytotoxic to retinal endothelial cells after 24 hour incubation (n≈10,000 cells).
FIG. 21: REC Proliferation. […] (*, # P<0.001; Mean±SD, N=8/group).

Row | Compound | VEGF-dependent ERK1/2 phosphorylation (ERK1/2) | VEGF-induced PaxY118 phosphorylation (FIG. 20) (paxillin (pY118)) | VEGF-induced FAK activation (Y397, Y925) [1] | VEGF-induced activation of AKT (P-AKT Ser473) (AKT (Ser473)) | VEGF-induced REC proliferation (FIG. 21) [2]
1 | CN(C)S(=O)(=O)c1ccc2c(c1)/C(=C/c1cc3c([nH]1)CCCC3)C(=O)N2 [SU6656, reference compound] | Neither SU6656 nor compound (II-4) decreased | inhibited | inhibited | inhibited | inhibited
2 | N#CC(=C(/N)Sc1ccccc1N)/C(C#N)=C(\N)Sc1ccccc1N [U0126, reference compound] | – | no change in activation of Y118 | – | – | VEGF-induced REC proliferation was inhibited
